Measurements reported in patent US10336762B2 (priority 2017, dated 2019).
Read-outs that look alike come from different tables or passages of the source.

Tests used:
[1] = tested on: TNFα; test: cells; assay type: cell-based, human; details: LPS-stimulated human monocytes, read-out: EC50 TNF
[2] = molecular target: IRAK4 enzyme (Homo sapiens (Human), UniProt Q9NWZ3); test: biochemical; assay type: biochemical; details: IRAK4 enzyme, 500 μM ATP
[3] = Homo sapiens, Monocyte, TNFα content
[4] = Homo sapiens, Monocyte, TNFα by TR-FRET

Chain of IRAK4 enzyme (Q9NWZ3 whole entry): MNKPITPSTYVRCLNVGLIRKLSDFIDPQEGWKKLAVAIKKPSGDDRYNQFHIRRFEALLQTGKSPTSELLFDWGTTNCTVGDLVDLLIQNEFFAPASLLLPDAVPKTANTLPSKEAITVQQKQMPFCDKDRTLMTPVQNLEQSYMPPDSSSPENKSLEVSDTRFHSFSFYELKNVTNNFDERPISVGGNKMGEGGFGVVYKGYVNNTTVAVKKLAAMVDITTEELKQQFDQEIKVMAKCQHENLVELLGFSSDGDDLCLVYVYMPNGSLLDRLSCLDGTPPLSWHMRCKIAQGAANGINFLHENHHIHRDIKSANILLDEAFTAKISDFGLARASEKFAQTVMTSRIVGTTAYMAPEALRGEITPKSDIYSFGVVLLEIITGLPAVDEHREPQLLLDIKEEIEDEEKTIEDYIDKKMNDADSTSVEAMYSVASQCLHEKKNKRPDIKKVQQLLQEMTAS

Row | Compound | EC50 [1, 3] [µM] | IC50 ([2]; TR-FRET) [µM] | IC50 ([2]; TR-FRET (HTRF)) [µM] | EC50 ([1]; TNFα by TR-FRET) [µM] | EC50 [1, 4] [µM]
1 | CC(=O)NCc1ccc(Nc2cc(-c3ccc4cc(C#N)cnn34)ncc2C(=O)NC[C@@H](F)C(C)(C)O)cc1 [Example 241, (R)-4-((4-(acetamidomethyl)phenyl)amino)-6-(3-cyanopyrrolo[1,2-b]pyridazin-7-yl)-N-(2-fluoro-3-hydroxy-3-methylbutyl)nicotinamide] | 0.016 | < 0.001 | – | – | –
2 | CC(C)(O)[C@H](F)CNC(=O)c1cnc(-c2ccc3cc(C#N)cnn23)cc1N[C@H]1CC[C@@H](O)C1 [Example 520, 6-(3-cyanopyrrolo[1,2-b]pyridazin-7-yl)-N-((R)-2-fluoro-3-hydroxy-3-methylbutyl)-4-(((1S,3R)-3-hydroxycyclopentyl)amino)nicotinamide] | 0.045 | – | < 0.001 | – | –
3 | CC(C)(O)[C@H](F)CNC(=O)c1cnc(-c2ccc3cc(C#N)cnn23)cc1N[C@H]1CCOC[C@@H]1F [Example 151, 6-(3-cyanopyrrolo[1,2-b]pyridazin-7-yl)-N-((R)-2-fluoro-3-hydroxy-3-methylbutyl)-4-(((3R,4S)-3-fluorotetrahydro-2H-pyran-4-yl)amino) nicotinamide] | 0.096 | < 0.001 | – | – | –
4 | CC(C)(O)[C@H](F)CNC(=O)c1cnc(-c2ccc3cc(C#N)cnn23)cc1Nc1cncc(OC(F)F)c1 [Example 217, (R)-6-(3-cyanopyrrolo[1,2-b]pyridazin-7-yl)-4-((5-(difluoromethoxy)pyridin-3-yl)amino)-N-(2-fluoro-3-hydroxy-3-methylbutyl)nicotinamide] | 0.063 | < 0.001 | – | – | –
5 | CC(C)(F)[C@H](F)CNC(=O)c1cnc(-c2ccc3cc(C#N)cnn23)cc1N[C@H]1CCC[C@@H](O)C1 [Example 530, 6-(3-cyanopyrrolo[1,2-b]pyridazin-7-yl)-N-((R)-2,3-difluoro-3-methylbutyl)-4-(((1S,3R)-3-hydroxy-cyclohexyl)amino)nicotinamide] | 0.01 | – | < 0.001 | – | –
6 | CNC(=O)c1cnc(-c2ccc3cc(C#N)cnn23)cc1NC12CCC(C(=O)NC3CC3)(CC1)CC2 [Example 481, 6-(3-cyanopyrrolo[1,2-b]pyridazin-7-yl)-4-((4-(cyclopropylcarbamoyl)bicyclo[2.2.2]octan-1-yl)amino)-N-methylnicotinamide] | 0.063 | – | 0.002 | – | –
7 | CC(C)(O)[C@H](F)CNC(=O)c1cnc(-c2ccc3cc(C#N)cnn23)cc1Nc1ccc(-c2cnco2)nc1 [Example 625, (R)-6-(3-cyanopyrrolo[1,2-b]pyridazin-7-yl)-N-(2-fluoro-3-hydroxy-3-methylbutyl)-4-((6-(oxazol-5-yl)pyridin-3-yl)amino)nicotinamide] | 0.022 | – | < 0.001 | – | –
8 | CC(=O)NC(C)(C)c1ccc(Nc2cc(-c3ccc4cc(C#N)cnn34)ncc2C(=O)NC[C@@H](F)C(C)(C)O)cc1 [Example 215, (R)-4-((4-(2-acetamido-propan-2-yl)phenyl)amino)-6-(3-cyanopyrrolo[1,2-b]pyridazin-7-yl)-N-(2-fluoro-3-hydroxy-3-methylbutyl)nicotinamide] | 0.053 | 0.002 | – | – | –
9 | CC(C)(O)[C@H](F)CNC(=O)c1cnc(-c2ccc3cc(C#N)cnn23)cc1Nc1ccccc1C(N)=O [Example 382, (R)-4-((2-carbamoyl-phenyl)amino)-6-(3-cyanopyrrolo[1,2-b]pyridazin-7-yl)-N-(2-fluoro-3-hydroxy-3-methylbutyl)nicotinamide] | 0.586 | 0.01 | – | – | –
10 | CC(C)(O)[C@H](F)CNC(=O)c1cnc(-c2ccc3cc(C#N)cnn23)cc1NC1CC2(CCN2)C1 (stereo partly drawn) [Example 911, 4-(((4R,6s)-1-azaspiro[3.3]heptan-6-yl)amino)-6-(3-cyanopyrrolo[1,2-b]pyridazin-7-yl)-N-((R)-2-fluoro-3-hydroxy-3-methylbutyl) nicotinamide] | – | 0.007 | – | 0.318 | –
11 | CC(C)Nc1cc(-c2ccc3cc(C#N)cnn23)ncc1C(=O)NC12CC(C#N)(C1)C2 [Example 380, N-(3-cyanobicyclo[1.1.1]pentan-1-yl)-6-(3-cyano-pyrrolo[1,2-b]pyridazin-7-yl)-4-(isopropylamino) nicotinamide] | 0.773 | 0.015 | – | – | –
12 | N#CCNC(=O)c1cnc(-c2ccc3cc(C#N)cnn23)cc1Nc1cnn([C@H]2CCNC2)c1 [Example 896, (S)-N-(cyanomethyl)-6-(3-cyanopyrrolo[1,2-b]pyridazin-7-yl)-4-((1-(pyrrolidin-3-yl)-1H-pyrazol-4-yl)amino) nicotinamide] | – | < 0.001 | – | – | 0.048
13 | CC(C)(O)[C@H](F)CNC(=O)c1cnc(-c2ccc3cc(C#N)cnn23)cc1N[C@H]1C[C@H](OC(=O)NC2CC2)C1 [Example 160, (1R,3r)-3-((2-(3-cyano-pyrrolo[1,2-b]pyridazin-7-yl)-5-(((R)-2-fluoro-3-hydroxy-3-methylbutyl)carbamoyl)pyridin-4-yl)amino)cyclobutyl cyclopropylcarbamate] | > 10 | 0.465 | – | – | –
14 | CC(C)(O)[C@H](F)CNC(=O)c1cnc(-c2ccc3cc(C#N)cnn23)cc1Nc1cnc(N2CCC2)nc1 [Example 681, (R)-4-((2-(azetidin-1-yl)pyrimidin-5-yl)amino)-6-(3-cyanopyrrolo[1,2-b]pyridazin-7-yl)-N-(2-fluoro-3-hydroxy-3-methylbutyl) nicotinamide] | 0.006 | – | < 0.001 | – | –
15 | CC(C)(O)[C@H](F)CNC(=O)c1cnc(-c2ccc3cc(C#N)cnn23)cc1NC1C2CC1CN(S(C)(=O)=O)C2 (stereo partly drawn) [Example 30, 6-(3-cyanopyrrolo[1,2-b]pyridazin-7-yl)-N-((R)-2-fluoro-3-hydroxy-3-methyl-butyl)-4-((3-(methylsulfonyl)-3-azabicyclo[3.1.1]heptan-6-yl)amino)nicotinamide] | 0.732 | 0.003 | – | – | –
16 | CC1(C)C(=O)Nc2cc(Nc3cc(-c4ccc5cc(C#N)cnn45)ncc3C(=O)NC[C@@H](F)C(C)(C)O)ccc21 [Example 565, (R)-6-(3-cyanopyrrolo[1,2-b]pyridazin-7-yl)-4-((3,3-dimethyl-2-oxoindolin-6-yl)amino)-N-(2-fluoro-3-hydroxy-3-methylbutyl) nicotinamide] | 0.023 | – | < 0.001 | – | –
17 | Cn1ccnc1CNC(=O)c1cnc(-c2ccc3cc(C#N)cnn23)cc1NC12CCC(O)(CC1)CC2 [Example 928, 6-(3-cyanopyrrolo[1,2-b]pyridazin-7-yl)-4-((4-hydroxybicyclo[2.2.2]octan-1-yl)amino)-N-((1-methyl-1H-imidazol-2-yl)methyl)nicotinamide] | – | 0.001 | – | – | 0.071
18 | COC(=O)NC1CCC(NC(=O)c2cnc(-c3ccc4cc(C#N)cnn34)cc2N[C@H]2CC[C@H](NC(=O)OC)CC2)CC1 (stereo partly drawn) [Example 300, methyl ((1R,4r)-4-(6-(3-cyanopyrrolo[1,2-b]pyridazin-7-yl)-4-(((1r,4R)-4-((methoxycarbonyl)amino)cyclohexyl)amino)nicotinamido)cyclohexyl) carbamate] | 0.075 | 0.001 | – | – | –
19 | CC(=O)NC1(c2ccc(Nc3cc(-c4ccc5cc(C#N)cnn45)ncc3C(=O)NC[C@@H](F)C(C)(C)O)cc2)CC1 [Example 211, (R)-4-((4-(1-acetamidocyclo-propyl)phenyl)amino)-6-(3-cyanopyrrolo[1,2-b]pyridazin-7-yl)-N-(2-fluoro-3-hydroxy-3-methylbutyl)nicotinamide] | 0.05 | 0.001 | – | – | –
20 | COC(=O)NCC1(F)CC(Nc2cc(-c3ccc4cc(C#N)cnn34)ncc2C(=O)NC[C@@H](F)C(C)(C)O)C1 (stereo partly drawn) [Example 758, (R)-methyl ((3-((2-(3-cyanopyrrolo[1,2-b]pyridazin-7-yl)-5-((2-fluoro-3-hydroxy-3-methylbutyl)carbamoyl)pyridin-4-yl)amino)-1-fluorocyclobutyl)methyl)carbamate] | 0.011 | – | 0.001 | – | –
21 | CC(C)(O)[C@H](F)CNC(=O)c1cnc(-c2ccc3cc(C#N)cnn23)cc1NC1CC1CO (stereo partly drawn) [Example 303, 6-(3-cyanopyrrolo[1,2-b]pyridazin-7-yl)-N-((R)-2-fluoro-3-hydroxy-3-methylbutyl)-4-((2-(hydroxymethyl)cyclopropyl)amino)nicotinamide] | 0.026 | < 0.001 | – | – | –
22 | CC(C)(O)[C@H](F)CNC(=O)c1cnc(-c2ccc3cc(C#N)cnn23)cc1N[C@H]1C[C@H](CNC(=O)C2CC2F)C1 (stereo partly drawn) [Example 941, 6-(3-cyanopyrrolo[1,2-b]pyridazin-7-yl)-N-((R)-2-fluoro-3-hydroxy-3-methylbutyl)-4-(((1R,3R)-3-(((1R,2R)-2-fluorocyclo-propane-1-carboxamido)methyl)cyclobutyl)amino) nicotinamide] | – | < 0.001 | – | – | 0.019
23 | CC(C)Nc1cc(-c2ccc3cc(C#N)cnn23)ncc1C(=O)N[C@H]1CC[C@H](NC(=O)N2CCOCC2)CC1 [Example 126, N-((1r,4r)-4-(6-(3-cyano-pyrrolo[1,2-b]pyridazin-7-yl)-4-(isopropylamino)nicotinamido)cyclohexyl) morpholine-4-carboxamide] | 0.092 | 0.001 | – | – | –
24 | CC(C)(O)[C@H](F)CNC(=O)c1cnc(-c2ccc3cc(C#N)cnn23)cc1NC1CCN(C2COC2)CC1 [Example 83, (R)-6-(3-cyanopyrrolo[1,2-b]pyridazin-7-yl)-N-(2-fluoro-3-hydroxy-3-methylbutyl)-4-((1-(oxetan-3-yl)piperidin-4-yl)amino) nicotinamide] | 0.221 | 0.001 | – | – | –
25 | Cc1nnc(NC[C@H]2C[C@H](Nc3cc(-c4ccc5cc(C#N)cnn45)ncc3C(=O)NC[C@@H](F)C(C)(C)O)C2)o1 [Example 694, 6-(3-cyanopyrrolo[1,2-b]pyridazin-7-yl)-N—((R)-2-fluoro-3-hydroxy-3-methylbutyl)-4-(((1r,3R)-3-(((5-methyl-1,3,4-oxadiazol-2-yl)amino)methyl)cyclobutyl)amino)nicotinamide] | 0.102 | – | < 0.001 | – | –
